Where “and” joins values, the source holds several entries; their conditions need not be identical. Equal values may be shown once.
Assays:
serine racemase [1] = target: T1, serine racemase (Homo sapiens, UniProt Q9GZT4); assay: affinity pull-down from Centella asiatica extract on immobilized SR, identified by LC-MS/MS and FTIR; assay type: binding; set-up: gene SRR; recombinant His-tagged human SR immobilized on Ni-NTA beads
T1 sequence (Q9GZT4 1-340): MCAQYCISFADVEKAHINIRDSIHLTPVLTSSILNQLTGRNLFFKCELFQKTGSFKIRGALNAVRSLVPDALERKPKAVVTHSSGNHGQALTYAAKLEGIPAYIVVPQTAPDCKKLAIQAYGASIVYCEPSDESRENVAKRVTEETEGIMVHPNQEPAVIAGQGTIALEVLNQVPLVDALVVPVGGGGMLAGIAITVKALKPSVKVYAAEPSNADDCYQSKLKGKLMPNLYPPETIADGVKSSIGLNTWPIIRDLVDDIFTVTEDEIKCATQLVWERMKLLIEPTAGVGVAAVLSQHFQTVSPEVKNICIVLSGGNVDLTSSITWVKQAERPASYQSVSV

serine racemase [2] = target: T1, serine racemase; assay: SR activity assay, reference inhibitor (Supplementary Fig. S6); assay type: biochemical; set-up: gene SRR; recombinant His-tagged human SR (1020 bp gene, NM_021947.1), expressed in E. coli
[3] = target: the molecule itself; assay: SEC; Ni-NTA purified SR on Sephadex S-200, 1 ml/min, 20 mM Tris-HCl, 150 mM NaCl, 15 uM PLP pH 8.0

C[C@H]1[C@H](C)CC[C@]2(C(=O)O)CC[C@]3(C)C(=CC[C@@H]4[C@@]5(C)C[C@@H](O)[C@H](O)[C@@](C)(CO)[C@@H]5[C@H](O)C[C@]43C)[C@H]12 [madecassic acid] was tested, and the “affinity pull-down from Centella asiatica extract on immobilized SR, identified” value (serine racemase [1]) was “Madecassoside and madecassic acid are the two compounds identified from the CA plant extract binding to SR”.

O=C(O)CC(=O)O [malonate] showed an IC50 (serine racemase [2]) of 449 µM.

B1: recombinant human serine racemase (enzyme, UniProt Q9GZT4 1-340, looked up)
chain: MCAQYCISFADVEKAHINIRDSIHLTPVLTSSILNQLTGRNLFFKCELFQKTGSFKIRGALNAVRSLVPDALERKPKAVVTHSSGNHGQALTYAAKLEGIPAYIVVPQTAPDCKKLAIQAYGASIVYCEPSDESRENVAKRVTEETEGIMVHPNQEPAVIAGQGTIALEVLNQVPLVDALVVPVGGGGMLAGIAITVKALKPSVKVYAAEPSNADDCYQSKLKGKLMPNLYPPETIADGVKSSIGLNTWPIIRDLVDDIFTVTEDEIKCATQLVWERMKLLIEPTAGVGVAAVLSQHFQTVSPEVKNICIVLSGGNVDLTSSITWVKQAERPASYQSVSV
notes: serine racemase, human; printed size 37 kDa; no cleavage is described and the purified protein was later held on Ni-NTA beads; PLP was present in the purification buffers; also called SR; recombinant SR
B1 was tested, and the “stoichiometry N” value [3] was 2 and 4.

Reference: PMC7070078, “Accelerated identification of serine racemase inhibitor from Centella asiatica” (Scientific Reports, 2020)
